One experiment concerns the target AChE (Homo sapiens, UniProt P22303). Briefly: biochemical. Particulars: for inhibition at 1000 µM: 10^−3 M; for IC50: 10^−3–10^−9 M concentrations; for inhibition at 100 µM: 10^−4 M.
The target in the next experiment is BChE (Homo sapiens, UniProt P06276). Briefly: Anticholinesterase activity assay (modified Ellman method), BChE. Type of experiment: biochemical. Particulars: for inhibition at 1000 µM: 10^−3 M; for inhibition at 100 µM: 10^−4 M. Here is the method:
. Initially, all the obtained compounds were tested at 10^−3 M and 10^−4 M concentrations and the ChE inhibitory results are outlined in Table 1. […]. Compounds 3a, 3c and 3i indicated more than 50% activity at the 10^−4 M concentration. […]. […] According to the results of activity tests, some general results can be listed as follows. The compounds 3a, 3c and 3i contain the non-substituted, methoxy and trifluoromethyl substituents on the phenyl ring, respectively. […]
The inhibitory capacity of the obtained compounds on AChE and BChE biological activities was assessed using a modified Ellman’s spectrometric method, as described in our previous studies. Donepezil were used as a reference drug. All pipetting procedures in the enzyme inhibition assay were carried out via a robotics system, Biotek Precision XS (Winooski, VT, USA). A BioTek-Synergy H1 microplate reader (Winooski, VT, USA) was used to carry out measurements of percent inhibition at 412 nm, and the IC50 values of the selected compounds were performed as previously described.

The next experiment has as its target T1, hMAO-A (Homo sapiens, UniProt P21397).
T1 construct: purchased Sigma-Aldrich (Steinheim, Germany)
T1 sequence (P21397 1-527): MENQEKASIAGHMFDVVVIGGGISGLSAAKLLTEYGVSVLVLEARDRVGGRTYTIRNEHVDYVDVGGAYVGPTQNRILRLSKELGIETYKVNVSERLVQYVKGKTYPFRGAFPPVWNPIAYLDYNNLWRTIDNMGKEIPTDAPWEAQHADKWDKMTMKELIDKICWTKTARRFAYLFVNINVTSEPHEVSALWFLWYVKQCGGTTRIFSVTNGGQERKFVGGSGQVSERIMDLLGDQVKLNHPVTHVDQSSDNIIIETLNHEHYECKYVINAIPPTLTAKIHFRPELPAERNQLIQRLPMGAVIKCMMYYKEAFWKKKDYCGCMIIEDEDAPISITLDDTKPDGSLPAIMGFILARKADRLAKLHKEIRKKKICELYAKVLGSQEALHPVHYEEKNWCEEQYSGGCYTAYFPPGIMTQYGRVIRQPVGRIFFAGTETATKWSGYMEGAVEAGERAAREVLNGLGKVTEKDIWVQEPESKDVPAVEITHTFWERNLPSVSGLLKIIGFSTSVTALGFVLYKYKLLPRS
The experiment is described as follows: Monoamine oxidase fluorometric inhibition assay, MAO-A. Type of experiment: biochemical. Particulars: for inhibition at 1000 µM: 10^−3 M; for inhibition at 100 µM: 10^−4 M. The procedure: In order to investigate the monoamine oxidase enzyme inhibitory effects of synthesized compounds, MAO-A and MAO-B enzyme activities were performed by using a fluorometric inhibition method. Moclobemide and selegiline were used as standard drugs for MAO-A and MAO-B enzymes, respectively. Test compounds and standard drugs were used in the same concentrations as in AChE and BChE enzyme activity assays. In Table 2, MAO enzyme inhibitory results are given. […]. To investigate the MAO-A and MAO-B enzyme inhibition profiles of the synthesized compounds, the fluorometric enzyme inhibition assay was carried out, as previously defined by us. Ampliflu™ Red (10-Acetyl-3,7-dihydroxyphenoxazine) was used as a fluorescence reagent in this assay.

The target in another experiment is T2, hMAO-B (Homo sapiens, UniProt P27338).
T2 construct: purchased Sigma-Aldrich (Steinheim, Germany)
T2 sequence (P27338 1-520): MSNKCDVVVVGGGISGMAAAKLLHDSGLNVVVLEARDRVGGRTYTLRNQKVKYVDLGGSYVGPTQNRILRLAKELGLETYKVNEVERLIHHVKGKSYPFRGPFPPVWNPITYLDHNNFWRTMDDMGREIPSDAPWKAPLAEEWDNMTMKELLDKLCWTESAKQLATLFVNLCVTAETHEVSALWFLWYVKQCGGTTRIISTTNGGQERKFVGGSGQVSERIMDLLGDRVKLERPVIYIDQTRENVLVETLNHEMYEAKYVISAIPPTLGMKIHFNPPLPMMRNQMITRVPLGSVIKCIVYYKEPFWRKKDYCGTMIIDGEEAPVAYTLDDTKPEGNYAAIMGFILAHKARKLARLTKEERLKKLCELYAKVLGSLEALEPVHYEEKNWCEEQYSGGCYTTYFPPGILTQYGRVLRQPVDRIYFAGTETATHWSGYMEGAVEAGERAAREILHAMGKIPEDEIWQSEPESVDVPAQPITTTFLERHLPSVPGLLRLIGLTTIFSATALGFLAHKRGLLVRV
The experiment is described as follows: biochemical. To be noted: for inhibition at 1000 µM: 10^−3 M; for inhibition at 1000 µM / inhibition at 100 µM: read-out: MAO-B % Inhibition; for inhibition at 100 µM: 10^−4 M; for IC50: read-out: MAO-B IC50. The procedure:
Test compounds and standard drugs were used in the same concentrations as in AChE and BChE enzyme activity assays. […] To investigate the MAO-A and MAO-B enzyme inhibition profiles of the synthesized compounds, the fluorometric enzyme inhibition assay was carried out, as previously defined by us. Ampliflu™ Red (10-Acetyl-3,7-dihydroxyphenoxazine) was used as a fluorescence reagent in this assay.

Each structure is given as a SMILES string.

BChE, sequence (P06276 29-602): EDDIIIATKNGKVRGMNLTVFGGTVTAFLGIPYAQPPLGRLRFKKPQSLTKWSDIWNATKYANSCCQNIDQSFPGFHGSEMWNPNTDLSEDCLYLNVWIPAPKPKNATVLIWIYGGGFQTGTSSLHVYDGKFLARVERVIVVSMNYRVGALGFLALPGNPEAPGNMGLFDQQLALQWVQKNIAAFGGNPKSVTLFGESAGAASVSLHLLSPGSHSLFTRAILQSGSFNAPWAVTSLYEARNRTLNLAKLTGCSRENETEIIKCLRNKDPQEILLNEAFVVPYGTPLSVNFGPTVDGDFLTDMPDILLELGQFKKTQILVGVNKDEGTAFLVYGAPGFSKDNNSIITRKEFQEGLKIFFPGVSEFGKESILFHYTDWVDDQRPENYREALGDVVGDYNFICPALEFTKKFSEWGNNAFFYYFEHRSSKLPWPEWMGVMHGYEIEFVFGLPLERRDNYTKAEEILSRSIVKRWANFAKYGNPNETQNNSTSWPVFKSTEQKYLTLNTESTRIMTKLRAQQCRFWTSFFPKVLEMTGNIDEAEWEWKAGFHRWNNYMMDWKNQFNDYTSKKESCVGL
AChE, sequence (P22303 32-614): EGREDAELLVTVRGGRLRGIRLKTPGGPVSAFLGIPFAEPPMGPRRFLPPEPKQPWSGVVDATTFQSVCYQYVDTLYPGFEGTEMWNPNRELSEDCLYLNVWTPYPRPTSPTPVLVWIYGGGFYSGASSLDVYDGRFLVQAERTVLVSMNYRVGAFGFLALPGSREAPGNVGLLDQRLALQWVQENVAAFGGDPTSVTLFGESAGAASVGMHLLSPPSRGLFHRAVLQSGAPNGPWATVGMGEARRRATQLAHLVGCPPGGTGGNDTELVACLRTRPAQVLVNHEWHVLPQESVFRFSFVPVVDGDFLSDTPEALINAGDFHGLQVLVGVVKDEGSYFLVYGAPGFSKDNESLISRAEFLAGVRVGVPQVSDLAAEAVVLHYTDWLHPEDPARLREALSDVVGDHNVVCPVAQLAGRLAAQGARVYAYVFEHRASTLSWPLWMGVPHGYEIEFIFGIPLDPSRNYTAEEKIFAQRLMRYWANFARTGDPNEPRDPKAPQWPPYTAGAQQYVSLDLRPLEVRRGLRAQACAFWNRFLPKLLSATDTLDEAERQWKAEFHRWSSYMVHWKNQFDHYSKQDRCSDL

`Fc1ccc(N2CCN(c3ccc(C=NNc4nc(-c5ccccc5)cs4)cc3)CC2)cc1` [Compound 3a, 2-(2-(4-(4-(4-fluorophenyl)piperazin-1-yl)benzylidene)hydrazineyl)-4-phenylthiazole]: the inhibition at 1000 µM was found to be 84.2 ± 0.89% against AChE, 21.5 ± 0.38% on BChE, 38.2 ± 0.95% against hMAO-A and 78.2 ± 1.05% at hMAO-B. In addition, the IC50 against AChE worked out at 49.6 ± 2 nM; at hMAO-B, 2110 ± 86 nM. In addition, the inhibition at 100 µM at BChE was determined as 19.3 ± 0.28%; against hMAO-A, 20.1 ± 0.63%; on hMAO-B, 70.2 ± 0.99%.
In the case of `Cc1ccc(-c2csc(NN=Cc3ccc(N4CCN(c5ccc(F)cc5)CC4)cc3)n2)cc1` [Compound 3b, 2-(2-(4-(4-(4-fluorophenyl)piperazin-1-yl)benzylidene)hydrazineyl)-4-(p-tolyl)thiazole], the inhibition at 1000 µM against AChE stood at 75.3 ± 1.05%; on BChE, 37.4 ± 0.67%; against hMAO-A, 44.2 ± 1.08%; at hMAO-B it was 60.8 ± 1.11%. For the same compound, the inhibition at 100 µM amounted to 45.9 ± 0.88% on AChE, 25.3 ± 0.58% on BChE, 25.8 ± 0.8% at hMAO-A and 46.7 ± 0.98% at hMAO-B.
As to `O=[N+]([O-])c1ccc(-c2csc(NN=Cc3ccc(N4CCN(c5ccc(F)cc5)CC4)cc3)n2)cc1` [Compound 3d, 2-(2-(4-(4-(4-fluorophenyl)piperazin-1-yl)benzylidene)hydrazineyl)-4-(4-nitrophenyl)thiazole], the inhibition at 1000 µM was 76.7 ± 1.12% at AChE, 35.4 ± 0.49% at BChE, 51 ± 0.97% against hMAO-A and 75.7 ± 1.06% at hMAO-B. The inhibition at 100 µM stood at 38.5 ± 0.76% against AChE, 31.9 ± 0.56% on BChE, 39.1 ± 0.71% against hMAO-A and 65.2 ± 0.97% on hMAO-B. Moreover, the IC50 on hMAO-B was 5200 ± 153 nM.
Consider `N#Cc1ccc(-c2csc(NN=Cc3ccc(N4CCN(c5ccc(F)cc5)CC4)cc3)n2)cc1` [Compound 3e, 4-(2-(2-(4-(4-(4-fluorophenyl)piperazin-1-yl)benzylidene)hydrazineyl)thiazol-4-yl)benzonitrile], for which the inhibition at 1000 µM against AChE came out at 71.2 ± 0.9%; at BChE, 31.8 ± 0.61%; at hMAO-A it was 47.2 ± 0.88%; at hMAO-B, 58.1 ± 0.9%. The inhibition at 100 µM against AChE worked out at 42.3 ± 0.63%; at BChE, 24.9 ± 0.38%; against hMAO-A it was 23.5 ± 0.6%; on hMAO-B, 43.1 ± 0.71%.
As for `Fc1ccc(-c2csc(NN=Cc3ccc(N4CCN(c5ccc(F)cc5)CC4)cc3)n2)cc1` [Compound 3f, 4-(4-fluorophenyl)-2-(2-(4-(4-(4-fluorophenyl)piperazin-1-yl)benzylidene)hydrazineyl)thiazole], the inhibition at 1000 µM on AChE was 78.4 ± 1.04%; on BChE it was 28.2 ± 0.42%; at hMAO-A, 30.1 ± 0.47%; at hMAO-B, 57.3 ± 1.03%. Also, the inhibition at 100 µM is 48.1 ± 0.87% at AChE, 20.4 ± 0.35% at BChE, 19.3 ± 0.41% against hMAO-A and 39.2 ± 0.79% at hMAO-B.
For the compound `Fc1ccc(N2CCN(c3ccc(C=NNc4nc(-c5ccc(Cl)cc5)cs4)cc3)CC2)cc1` [Compound 3g, 4-(4-chlorophenyl)-2-(2-(4-(4-(4-fluorophenyl)piperazin-1-yl)benzylidene)hydrazineyl)thiazole], the inhibition at 1000 µM against AChE was determined as 64.5 ± 0.67%; on BChE, 38.54 ± 0.35%; against hMAO-A, 48.2 ± 0.97%; at hMAO-B it was 68.1 ± 1.12%. Besides, the inhibition at 100 µM turned out to be 37.8 ± 0.6% against AChE, 20.2 ± 0.35% on BChE, 30.2 ± 0.5% on hMAO-A and 41.8 ± 0.86% at hMAO-B.
Regarding `Fc1ccc(N2CCN(c3ccc(C=NNc4nc(-c5ccc(Br)cc5)cs4)cc3)CC2)cc1` [Compound 3h, 4-(4-bromophenyl)-2-(2-(4-(4-(4-fluorophenyl)piperazin-1-yl)benzylidene)hydrazineyl)thiazole], the inhibition at 1000 µM on AChE stood at 75.3 ± 1.06%; on BChE, 40.6 ± 0.68%; against hMAO-A, 34.2 ± 0.58%; on hMAO-B, 68.9 ± 1.25%. The inhibition at 100 µM on AChE was found to be 47.1 ± 0.74%; at BChE, 35.5 ± 0.41%; on hMAO-A it was 22.2 ± 0.47%; at hMAO-B it was 39.1 ± 0.63%.
Consider `Fc1ccc(N2CCN(c3ccc(C=NNc4nc(-c5ccc(C(F)(F)F)cc5)cs4)cc3)CC2)cc1` [Compound 3i, 2-(2-(4-(4-(4-fluorophenyl)piperazin-1-yl)benzylidene)hydrazineyl)-4-(4-(trifluoromethyl)phenyl)thiazole], for which the inhibition at 1000 µM amounted to 80.7 ± 1.02% on AChE, 45.4 ± 0.52% on BChE, 38.2 ± 0.78% against hMAO-A and 59.1 ± 0.77% at hMAO-B. Besides, the IC50 at AChE was found to be 216 ± 10 nM. Besides, the inhibition at 100 µM is greater than 50% on AChE, 35.4 ± 0.39% on BChE, 22.8 ± 0.54% at hMAO-A and 40.2 ± 0.58% at hMAO-B.
For `Cc1ccc(-c2csc(NN=Cc3ccc(N4CCN(c5ccc(F)cc5)CC4)cc3)n2)c(C)c1` [Compound 3j, 4-(2,4-dimethylphenyl)-2-(2-(4-(4-(4-fluorophenyl)piperazin-1-yl)benzylidene)hydrazineyl)thiazole], the inhibition at 1000 µM on AChE amounted to 53.8 ± 0.62%; on BChE, 31.9 ± 0.47%; against hMAO-A it was 48.2 ± 0.88%; on hMAO-B it was 69.2 ± 1.2%. Besides, the inhibition at 100 µM on AChE amounted to 26.9 ± 0.55%; on BChE it was 25.7 ± 0.49%; at hMAO-A it was 40.2 ± 0.52%; at hMAO-B, 40.8 ± 0.92%.
Turning to `Fc1ccc(N2CCN(c3ccc(C=NNc4nc(-c5ccc(Cl)cc5Cl)cs4)cc3)CC2)cc1` [Compound 3k, 4-(2,4-dichlorophenyl)-2-(2-(4-(4-(4-fluorophenyl)piperazin-1-yl)benzylidene)hydrazineyl)thiazole], the inhibition at 1000 µM on AChE came to 35.7 ± 0.57%; at BChE, 28.59 ± 0.25%; against hMAO-A, 35.2 ± 0.48%; at hMAO-B, 55.1 ± 0.92%. For the same compound, the inhibition at 100 µM was 20.4 ± 0.3% against AChE, 21 ± 0.61% at BChE, 19.1 ± 0.4% against hMAO-A and 34.2 ± 0.81% at hMAO-B.
With `O=C(NCCN1CCOCC1)c1ccc(Cl)cc1` [Moclobemide, reference compound], on hMAO-A, testing at 1000 µM gave an inhibition of 91.2 ± 2.8% and at 100 µM the inhibition was 78.2 ± 2.55%.
